From US8258098B2, “Antitumoral treatments” (Pharma Mar, S.A., priority 2006, dated 2012)

What was measured:
Assay type in all cases: cell-based
A549 cells = assay: MTS cytotoxicity assay, 72 hours, single agents and combinations with Aplidine; conditions: A549, 72 hours drug exposure, read-out: IC50 (Molar)
Method: (§1) Day before plating cells all cultures were fed with fresh, complete growth media. On the harvest (plating) day cells were counted by Trypan Blue exclusion staining method (basic cell culture). Cells were harvested and seeded in 96 well microtiter plates at 10,000 cells per well in 190 μL of media and incubated for 24 hours to allow the cells to attach before drug addition. Cells were treated with the drugs and the cytotoxic effect was measured by the MTS Assay (Tetrazolium), which is a colorimetric method for determining the number of viable cells. After the 72 hours of incubation with drug, 25 μL of MTS+PMS solution was added to each microtiter well and incubated for 4 hours at 37° C. Plates were then removed from incubator and placed on plate shaker for 5 minutes (covered with aluminium foil for protection from light). Optical densities were read at 490 nm on spectrophotometer plate reader.
(§2) The microtiter plates were incubated for 72 hrs, at 5% CO2 and 37° C. The cytotoxic effect was measured by MTS Assay. Optical densities read at 490 nm. Normalized data was plotted and interpreted as described. Data was analysed as: • 1. Prism (Graphpad) software program was used to normalized the data to control values (100%=cell growth in the absence of agent (drug); 0%=blank control). • 2. Data normalized were plotted as scatter plots.
(§3) Conversely, antagonism was concluded when inhibition was lower than both maxima. […] Statistical significance was assessed by performing a student's t-test on the inhibition at each dose ratio versus the inhibition at the maximum for each drug.
(§4) As a visual aid, response values were plotted on a scatter plot with dose ratios given on the x-axis and % response values on the y-axis. […] In cases where response values at the two endpoints were approximately equivalent, points lying above or below this predicted line of additivity could be interpreted as representing antagonistic or synergistic drug interaction, respectively.

HL60 cells = assay: as above; conditions: HL60, 72 hours drug exposure, read-out: IC50 (Molar)
Method: as §1, §2, §3, §4

HT29 cells = assay: as above; conditions: HT29, 72 hours drug exposure, read-out: IC50 (Molar)
Method: as §1, §2, §3, §4

MOLT3 cells = assay: as above; conditions: MOLT3, 72 hours drug exposure, read-out: IC50 (Molar)
Method: as §1, §2, §3, §4

MX1 cells = assay: as above; conditions: MX1, 72 hours drug exposure, read-out: IC50 (Molar)
Method: as §1, §2, §3, §4

PC3 cells = assay: as above; conditions: PC3, 72 hours drug exposure, read-out: IC50 (Molar)
Method: as §1, §2, §3, §4

SKBR3 cells = assay: as above; conditions: SKBR3, 72 hours drug exposure, read-out: IC50 (Molar)
Method: as §1, §2, §3, §4

LOXIMVI cells = assay: MTS assay Example 2, single agents and combinations; conditions: read-out: IC50 (Molar)
Method: (§5) The day before plating cells all cultures were fed with fresh, complete growth media. On the harvest (plating) day cells were counted by Trypan Blue exclusion staining method.
(§6) Cells were harvested and seeded in 96 well microtiter plates at 15,000 cells per well in 190 μl of media and incubated for 24 hours to allow the cells to attach before drug addition.
(§7) The cytotoxic effect was measured by the MTS Assay (Tetrazolium), which is a colorimetric method for determining the number of viable cells.
(§8) After 72 hours of incubation with tested agents 25 μl of MTS+PMS solution was added to each microtiter well and incubated for 4 hours at 37° C. Plates were then removed from incubator and placed on plate shaker for 5 minutes (covered with aluminum foil for protection from light). Optical densities were read at 490 nm on spectrophotometer plate reader. Data was analyzed as: • 1. Prism (Graphpad) software program was used to normalized the data to control values (100%=cell growth in the absence of agent (drug); 0%=blank control). • 2. Data normalized were plotted as scatter plots.
as §3
as §4, with “interaction” for “interaction,”

UACC-257 cells = assay: as above; conditions: UACC-257, MTS; read-out: IC50 (Molar)
Method: as §5, §6, §7, §8, §3
as §4, with “interaction” for “interaction,”

N.N.O=C([O-])C1(C(=O)[O-])CCC1.[Pt+2] [carboplatin]
IC50 (A549 cells): 310 µM | IC50 (HL60 cells): 56 µM | IC50 (HT29 cells): 260 µM | IC50 (MOLT3 cells): 4 µM | IC50 (MX1 cells): > 100 µM | IC50 (PC3 cells): > 100 µM | IC50 (SKBR3 cells): 52 µM | IC50 (LOXIMVI cells): 120 µM | IC50 (UACC-257 cells): 170 µM
